Assay: 13C NMR pH titration of sodium lactate/lactic acid solutions, nonlinear least squares fit of Equation 5
Assay type: physicochemical
Details: carboxyl group of lactic acid, about 1 weight % sodium lactate and lactic acid, pH about 2 to about 5.5, fit of 13C chemical shift vs pH
Procedure: In at least one implementation, the chemical species or molecular or molecular entity may be or include a carboxyl group, such as the carboxyl group of a lactic acid, where the observed C-13 chemical shift can be expressed according to equation (5): pH=pKa+log [(δC−δCO2H)/(δCO2^−−δC)] (5)
A calibration curve was prepared for measuring lactic acid with an NMR by using standardized buffered solutions of sodium lactate and lactic acid at different mole ratios in water at varying pH. The solutions included a total concentration of sodium lactate and lactic acid at about 1 weight %, and the pH was varied from a pH of about 2 to about 5.5. NMR was performed on the samples to obtain C-13 chemical shift values. A pH electrode was utilized to measure the pH of each of the standardized samples, and the calibration curve was prepared by correlating the measured C-13 chemical shift to the pH values measured by the pH electrode, as illustrated in FIG. 4. As such, the observed ^13C chemical shift of the carbonyl group (δC) was expressed as the weighted average of the ^13C chemical shift between CO2H (δCO2H) and CO2^−(δCO2^−). The pH of the carboxyl group was described in terms of pKa of the carboxyl group, as represented by Equation 5. pH=pKa+log [(δC−δCO2H)/(δCO2^−−δC)] (5)
The nonlinear least squares fit was applied to determine the values of the pKa, the δCO2^−, and the δCO2H.

CC(O)C(=O)O (stereo not shown) [lactic acid]
pKa: 3.73

Source: patent US11892435B2, “NMR methods for measuring pH in oral care, home care and personal care products” (Colgate-Palmolive Company, priority 2018, dated 2024)
